Reference: ChEMBL document CHEMBL1201862, “PubChem BioAssay data set” (2004)
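1) Cells in 96-well plates. 2) Compound, 48 h, 5 concentrations. 3) Linear interpolation between surrounding doses. 4) Unreached endpoint = highest concentration. At the GI50, growth is halved.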 The source made the active and inactive calls. Cut-off read from the data, not from the text of the source: active = GI50 up to about 1.1 µM and inactive = higher.

Tests used:
Experiment in all cases: growth of human tumour cells (NCI), 48 h
Hs-578T = system: Hs-578T
OVCAR-8 = system: OVCAR-8
SN12C = system: SN12C
HOP-92 = system: HOP-92
PC-3 = system: PC-3
DU-145 = system: DU-145
A549 = system: A549
OVCAR-3 = system: OVCAR-3
EKVX = system: EKVX
NCI-H226 = system: NCI-H226
NCI-H522 = system: NCI-H522
SNB-19 = system: SNB-19
CAKI-1 = system: CAKI-1
RPMI-8226 = system: RPMI-8226
K562 = system: K562
T47D = system: T47D
HCT-116 = system: HCT-116
SNB-75 = system: SNB-75
A498 = system: A498

Structure (SMILES)	GI50 (Hs-578T)	GI50 (OVCAR-8)	GI50 (SN12C)	GI50 (HOP-92)	GI50 (PC-3)	GI50 (DU-145)	GI50 (A549)	GI50 (OVCAR-3)	GI50 (EKVX)	GI50 (NCI-H226)	GI50 (NCI-H522)	GI50 (SNB-19)	GI50 (CAKI-1)	GI50 (RPMI-8226)	GI50 (K562)	GI50 (T47D)	GI50 (HCT-116)	GI50 (SNB-75)	GI50 (A498)
Brc1cc2nn(-c3ccccc3)nc2c2nonc12	> 100 µM (inactive)	> 100 µM (inactive)	> 100 µM (inactive)	> 100 µM (inactive)	> 100 µM (inactive)	> 100 µM (inactive)	> 100 µM (inactive)	> 100 µM (inactive)	> 100 µM (inactive)	> 100 µM (inactive)	> 100 µM (inactive)	> 100 µM (inactive)	> 100 µM (inactive)	> 100 µM (inactive)	> 100 µM (inactive)	28.4 µM (inactive)	> 100 µM (inactive)	> 100 µM (inactive)	
O=c1oc2ccc3ccccc3c2cc1-c1cn2ccccc2n1	35.6 µM (inactive)	51.3 µM (inactive)	48.1 µM (inactive)	90.6 µM (inactive)	> 100 µM (inactive)	> 100 µM (inactive)	24.7 µM (inactive)	> 100 µM (inactive)	30.5 µM (inactive)	> 100 µM (inactive)	26.3 µM (inactive)		11.8 µM (inactive)	> 100 µM (inactive)	> 100 µM (inactive)	> 100 µM (inactive)	14.9 µM (inactive)	> 100 µM (inactive)	
Oc1cc(-c2cccc(Cl)c2)nc2cc3c(cc12)OCO3	0.255 µM (active)	0.647 µM (active)	0.912 µM (active)	0.951 µM (active)	0.308 µM (active)	0.284 µM (active)	2.47 µM (inactive)				0.334 µM (active)	0.726 µM (active)		0.498 µM (active)		10.6 µM (inactive)		0.258 µM (active)	0.371 µM (active)
COC(=O)CCc1cc(OC)c2oc(-c3ccc(OC)c(OC)c3)c(CO)c2c1	> 100 µM (inactive)	> 100 µM (inactive)	> 100 µM (inactive)	> 100 µM (inactive)	> 100 µM (inactive)	> 100 µM (inactive)	> 100 µM (inactive)	> 100 µM (inactive)	> 100 µM (inactive)	> 100 µM (inactive)	> 100 µM (inactive)	> 100 µM (inactive)	> 100 µM (inactive)	99.5 µM (inactive)	> 100 µM (inactive)	86.7 µM (inactive)	> 100 µM (inactive)		> 100 µM (inactive)
